Data published in patent US6120997A, “Nucleic acid binders having an hydroxyamine motif” (The Scripps Research Institute, priority 1998, dated 2000).

Columns and labels:
AS-wt = assay: SPR binding of aminoglycosides to decoding region A-site model AS-wt; design: species or system E. coli; conditions: for specificity for AS-wt over negative controls (in words): Example 5, HBS-buffer
Procedure: The RNA binding properties of 100-800 were analyzed using a surface plasmon resonance based assay that was recently developed in these laboratories. This assay allows the determination of both affinity and specificity of small molecule-RNA interactions. For the analysis, the compounds were injected over a matrix containing RNA that was immobilized through a biotin tag and the equilibrium binding values were recorded at various concentrations.
Non-linear curve fitting was then used to determine the values of the dissociation constants (KD). The specificity of binding, i.e. the ability to discriminate between different RNA sequences was evaluated by comparing the binding to the target sequence (AS-wt) and the negative control (AS-U1495A). The ratio of KD(AS-U1495A) to KD(AS-wt) was taken to be a representation of the specificity of the binding event.
(§1) For the quantitative measurement of aminoglycoside binding to these sequences, we utilized our recently developed SPR-based assay. Biotinylated derivatives of all sequences were prepared by in vitro transcription in the presence of guanosine 5'-monophosphorothioate followed by alkylation with a biotin iodoacetamide derivative. The RNA conjugates were then immobilized onto streptavidin coated SPR-sensorchips for analysis.
(§2) In the same manner as illustrated for paromomycin, a panel of aminoglycosides was screened and the results are compiled in the table of FIGS. 46 and 47. In addition to the naturally occuring aminoglycoside antibiotics, some of the compounds in FIG. 46 are synthetically derived, unnatural aminoglycosides. The number of independent determinations for each dissociation constant ranged from 1-3. […] All data were recorded under near physiological salt conditions (HBS-buffer: 150 mM NaCl, 10 mM HEPES, pH7.4, 3.4 mM EDTA) unless noted otherwise. Data points were taken at concentrations ranging from […]. Below this concentration range, surface transport limitations prevent the attainment of equilibrium.
Plasmon resonance and antimicrobial testing for Example 4. Synthesis of the biotinylated RNA and surface plasmon resonance detected binding experiments were performed as described vida supra. Solution conditions: 150 mM NaCl, 10 mM HEPES (pH 7.4), 3.4 mM EDTA. KD determination from the binding curves.
The fitting routine of the program kaleidagraph was used for all calculations. The starting values for a and b were set to 1 and 0 respectively. The number of KD values used in the fitting was adjusted depending on the observed range of equivalents bound but generally varied from 3 to 4.
General Procedures for SPR Binding Studies done in Example 5. Samples were prepared by serial dilutions from stock solutions in RNase free microfuge tubes (Ambion) and were centrifuged at 14000 rpm for degassing. Unless otherwise noted, all binding studies were carried out using HBS buffer (Pharmacia Biosensor AB) which was used as obtained. All procedures for binding studies were automated as methods using repetitive cycles of sample injection and regeneration. Typically, buffer was injected in the first two cycles to establish a stable baseline value. Samples were injected at a flowrate of […] using either the KINJECT command. All aminoglycoside samples were injected from autoclaved 7 mm plastic vials that were capped with pierceable plastic crimp caps. To minimize carry over, samples were injected in order of increasing concentration. The running buffer was identical to the injection buffer. Expected values for the equilibrium response of one equivalent of analyte were calculated from the relative molecular weight of the analyte and the immobilized RNA ligand in each flowcells and adjusted with a correction factor of 0.76 which arises from the different molar refractive indices of RNA and the analyte. […]

Neo16-bd = assay: SPR binding of aminoglycosides to Neo16-bd aptamer
Procedure: Conditions: 10 mM HEPES (pH 7.4), 0.1 mM EDTA and NaCl as indicated.
The binding of aminoglycosides to RNA is likely to involve substantial ionic contributions and therefore should be strongly influenced by competing buffer ions. […] We studied the salt dependence of neomycin B binding to RBE3, RBE3-neg and Neo16-bd (FIG. 14) by varying the concentration of NaCl included in the injection buffer (10 mM HEPES, pH 7.4, 0.1 mM EDTA). […] This neomycin binding motif was obtained by in vitro selection under conditions of high ionic strength.
To further improve our understanding of specific aminoglycoside recognition, we have also included an artificial aminoglycoside receptor that was evolved in vitro to recognize an aminoglycoside. A number of RNA aptamers for small molecules have been reported in recent years. Among them are aptamers that recognize the aminoglycosides tobramycin, lividomycin and kanamycin.
For comparison, the corresponding values for AS-wt are also included.
General Procedures for SPR Binding Studies done in Example 5. Samples were prepared by serial dilutions from stock solutions in RNase free microfuge tubes (Ambion) and were centrifuged at 14000 rpm for degassing. Unless otherwise noted, all binding studies were carried out using HBS buffer (Pharmacia Biosensor AB) which was used as obtained. All procedures for binding studies were automated as methods using repetitive cycles of sample injection and regeneration. Typically, buffer was injected in the first two cycles to establish a stable baseline value. Samples were injected at a flowrate of […] using either the KINJECT command. All aminoglycoside samples were injected from autoclaved 7 mm plastic vials that were capped with pierceable plastic crimp caps. To minimize carry over, samples were injected in order of increasing concentration. The running buffer was identical to the injection buffer.

AS-U1406A = assay: SPR binding of aminoglycosides to AS-U1406A; conditions: Example 5, HBS-buffer
Text: To understand the specificity of ribosomal RNA recognition by the various aminoglycosides, we decided to investigate their binding to AS-wt and compare the results to a series of control mutants which have likewise been characterized by footprinting (FIG. 44). These include the negative controls AS-U1495A, AS-DA1492 and AS-res. […] In AS-U1495A a critical hydrogen bond acceptor which interacts with N1 of the 2-deoxystreptamine ring has been removed. The mutation DA1492 destroys the bulged pocket in which paromomycin ring II (the glucose ring) is positioned. Finally, in the AS-res mutant the G1491:C1409 base pair which creates the floor of the binding pocket is disrupted by replacing it with a C1491:U1409 mismatch. Breaking up this critical base pair in the E. coli 16S ribosomal RNA causes resistance to a broad range of aminoglycosides. In contrast to these negative controls, the mutant hairpin AS-U1406A still contains all necessary elements for specific aminoglycoside recognition and binds paromomycin with wild type specificity.
as §1, §2
General Procedures for SPR Binding Studies done in Example 5. Samples were prepared by serial dilutions from stock solutions in RNase free microfuge tubes (Ambion) and were centrifuged at 14000 rpm for degassing. Unless otherwise noted, all binding studies were carried out using HBS buffer (Pharmacia Biosensor AB) which was used as obtained. All procedures for binding studies were automated as methods using repetitive cycles of sample injection and regeneration. Typically, buffer was injected in the first two cycles to establish a stable baseline value. Samples were injected at a flowrate of […] using either the KINJECT command. All aminoglycoside samples were injected from autoclaved 7 mm plastic vials that were capped with pierceable plastic crimp caps. To minimize carry over, samples were injected in order of increasing concentration. The running buffer was identical to the injection buffer. Expected values for the equilibrium response of one equivalent of analyte were calculated from the relative molecular weight of the analyte and the immobilized RNA ligand in each flowcells and adjusted with a correction factor of 0.76 which arises from the different molar refractive indices of RNA and the analyte. Binding constants were calculated by fitting the recorded binding isotherm (equivalents bound vs, concentration) to a model with n independent binding constants using the fitting program provided in the program Kaleidagraph (Macintosh).

Compound | specificity for AS-wt over negative controls (in words) (AS-wt) | binding to AS-U1406A mutant relative to AS-wt (in words) (AS-U1406A) | other results
CN[C@H]1C[C@@H](N)[C@H](O)[C@@H](O[C@@H]2O[C@H](CO)[C@H](O)[C@@H]3OC4(O[C@H]23)O[C@H]([C@@H](N)CO)[C@H](O)[C@H](O)[C@H]4O)[C@@H]1O (some centres unmarked) [Hygromycin B] | none |  | 
NC[C@@H]1O[C@H](O[C@H]2[C@@H](O)[C@H](O[C@@H]3[C@@H](O)[C@H](N)C[C@H](N)[C@H]3O[C@H]3O[C@H](CN)[C@@H](O)[C@H](O)[C@H]3N)O[C@@H]2CO)[C@H](O)[C@@H](O)[C@@H]1O [Compound 800, 2"'-desamino-2"'-hydroxy neomycin B] |  |  | Kd (Neo16-bd; HBS-buffer, read-out: Kd, Neo16bd): < 10 nM; affinity improvement for AS-wt in relation to 700 (AS-wt): 40 fold
N[C@H]1[C@@H](O[C@H]2[C@H](O)[C@@H](O)[C@H](N)C[C@@H]2N)O[C@H](CO)[C@@H](O)[C@@H]1O [Paromamine] | substantial decrease in binding to AS-wt and a loss of most specificity |  | 
Gentamycin | only very moderate specificity for AS-wt | not increased in the U1406A mutant relative to AS-wt but rather decreased | 
NC[C@H]1O[C@H](O[C@H]2[C@H](O)[C@@H](O[C@H]3O[C@H](CO)[C@@H](O)[C@H](N)[C@H]3O)[C@H](N)C[C@@H]2N)[C@H](N)C[C@@H]1O [Tobramycin] | only very moderate specificity for AS-wt | not increased in the U1406A mutant relative to AS-wt but rather decreased | 
NC[C@H]1O[C@H](O[C@H]2[C@H](O[C@@H]3O[C@H](CO)[C@@H](O)[C@H]3O)[C@@H](O)[C@H](N)C[C@@H]2N)[C@H](N)[C@@H](O)[C@@H]1O [Ribostamycin] | low | only weakly enhanced | binding to Neo16bd (in words) (Neo16-bd): bound more tightly to the aptamer than paromomycin; lower affinity for AS-wt relative to neamine (AS-wt): 3 fold
NC[C@H]1O[C@H](O[C@H]2[C@H](O)[C@@H](O[C@H]3O[C@H](CO)[C@@H](O)[C@H](N)[C@H]3O)[C@H](N)C[C@@H]2N)[C@H](N)[C@@H](O)[C@@H]1O [Kanamycin B] | only very moderate specificity for AS-wt | not increased in the U1406A mutant relative to AS-wt but rather decreased | 
NCC1OC(OC2C(N)CC(N)C(OC3OC(CO)C(O)C(N)C3O)C2O)C(O)C(O)C1O (centres unmarked) [Kanamycin A] | only very moderate specificity for AS-wt | not increased in the U1406A mutant relative to AS-wt but rather decreased | 
NC[C@H]1O[C@H](O[C@H]2[C@H](O[C@@H]3O[C@H](CO)[C@@H](O[C@H]4O[C@@H](CO)[C@@H](O)[C@H](O)[C@H]4O)[C@H]3O)[C@@H](O)[C@H](N)C[C@@H]2N)[C@H](N)[C@@H](O)[C@@H]1O [Compound 700, 2"',6"'-desamino-2"'-6"'-hydroxy neomycin B] |  |  | RNA binding, affinity or specificity for AS-wt (in words) (AS-wt; Example 4): virtually the same RNA binding profile
Butirosin | only moderate specificity for AS-wt | significantly enhanced | 
CN[C@@H]1[C@@H](O[C@H]2O[C@H](CO)[C@@H](N)[C@H](O)[C@H]2O)OC2C[C@@H](N)[C@@H](O[C@H]3[C@H](O)[C@@H](O)[C@H](N)C[C@@H]3N)OC2[C@@H]1O (some centres unmarked) [Apramycin] | only marginal if any specificity for AS-wt |  | 
